Results from US20110152090A1, “HERBICIDAL COMPOSITIONS COMPRISING FLUFENACET” (Bayer CropScience AG, priority 2009, published 2011).

Key:
Format in all cases: in vivo
[1] = tested on: POAAN (Poa annua); test: Greenhouse trial: PE soil application vs incorporation into the soil (test methods 1, 3); settings: g of AS/ha: (A) 90, (B) 1200, (C) 90, (D) 300
Description: (§1) In the standard design of the test, seeds of various broad-leaved weed and weed grass biotypes (origins) were sown in a 8-13 cm diameter pot filled with natural soil of a standard field soil (loamy silt; non-sterile) and covered with a covering soil layer of about 1 cm. The pots were then cultivated in a greenhouse (12-16 h of light, temperature day 20-22° C., night 15-18° C.) until the time of application. The pots were treated on a laboratory track sprayer with spray liquors comprising the compositions according to the invention, mixtures of the prior art or components used individually. Application of the active compounds or active compound combinations formulated as WG, WP, EC or otherwise was carried out at the appropriate growth stages of the plants. The application rate for the spray application was 100-600 l of water/ha. After the treatment, the plants were returned to the greenhouses.
(§2) About 3 weeks after the application, the soil action or/and foliar action was assessed visually according to a scale of 0-100% in comparison to an untreated comparative group: 0%=no noticeable effect compared to the untreated comparative group; 100%=full effect compared to the untreated comparative group.
(§3) (notes: the term “seeds” also includes vegetative propagation forms such as, for example, rhizome pieces; abbreviations used: h light=hours of illumination, g of AS/ha=gram of active substance per hectare, l/ha=liter per hectare, S=sensitive, R=resistant) • 1. Pre-emergence action against weeds: seeds of various broad-leaved weed and weed grass biotypes (origins) were sown in a 8-13 cm diameter pot filled with natural soil of a standard field soil (loamy silt; non-sterile) and covered with a covering soil layer of about 1 cm. The pots were then cultivated in a greenhouse (12-16 h of light, temperature day 20-22° C., night 15-18° C.) until the time of application. The pots were treated at the BBCH stage 00-10 of the seeds/plants on a laboratory track sprayer with spray liquors comprising the compositions according to the invention, mixtures or components used individually, as WG, WP, EC or other formulations. The application rate for the spray application was 100-600 l of water/ha. After the treatment, the plants were returned to the greenhouses and, when required, treated with fertilizer and watered. • 2. Post-emergence action against weeds: seeds of various broad-leaved weed and weed grass biotypes (origins) were sown in a 8-13 cm diameter pot filled with natural soil of a standard field soil (loamy silt; non-sterile) and covered with a covering soil layer of about 1 cm. The pots were then cultivated in a greenhouse (12-16 h of light, temperature day 20-22° C., night 15-18° C.) until the time of application. The pots were treated at various BBCH stages between 11-25 of the seeds/plants, i.e. generally between two to three weeks after the start of the cultivation, on a laboratory track sprayer with spray liquors comprising the compositions according to the invention, mixtures or components used individually, as WG, WP, EC or other formulations. The application rate for the spray application was 100-600 l of water/ha. After the treatment, the plants were returned to the greenhouses and, when required, treated with fertilizer and watered. • 3. Pre-emergence action against weeds with and without incorporation of active compound: seeds of various broad-leaved weed and weed grass biotypes (origins) were sown in a 8-13 cm diameter pot filled with natural soil of a standard field soil (loamy silt; non-sterile). […]

[2] = tested on: STEME (Stellaria media); test: as above; settings: g of AS/ha: (A) 90, (B) 1200, (C) 90, (D) 300
Description: as §1, §2, §3

[3] = tested on: APESV (Apera Spica-venti); test: Greenhouse trial: PO application (test method 2); settings: g of AS/ha: (A) 120, (B) 1600, (C) 120
Description: as §1, §2, §3

[4] = tested on: POAAN (Poa annua); test: Greenhouse trial: PO application (test method 2); settings: g of AS/ha: (A) 120, (B) 1600, (C) 120
Description: as §1, §2, §3

[5] = tested on: STEME (Stellaria media); test: Greenhouse trial: PO application (test method 2); settings: g of AS/ha: (A) 120, (B) 1600, (C) 120
Description: as §1, §2, §3

[6] = tested on: HORVS (Hordeum vulgare, summer barley); test: Greenhouse trial: selective PO action (test method 5); settings: Hordeum vulgare (summer barley), in vivo, po
Description: as §1, §2
(§4) (notes: the term “seeds” also includes vegetative propagation forms such as, for example, rhizome pieces; abbreviations used: h light=hours of illumination, g of AS/ha=gram of active substance per hectare, l/ha=liter per hectare, S=sensitive, R=resistant) • 1. Pre-emergence action against weeds: seeds of various broad-leaved weed and weed grass biotypes (origins) were sown in a 8-13 cm diameter pot filled with natural soil of a standard field soil (loamy silt; non-sterile) and covered with a covering soil layer of about 1 cm. The pots were then cultivated in a greenhouse (12-16 h of light, temperature day 20-22° C., night 15-18° C.) until the time of application. […]

[7] = tested on: AVEFA (Avena fatua); test: Greenhouse trial: pre-sowing application vs PE application (test method 6)
Description: as §1, §2, §3

[8] = tested on: LOLPE (Lolium perenne); test: as above
Description: as §1, §2, §3

[9] = tested on: HORVS (Hordeum vulgare, summer barley); test: Greenhouse trial: pre-sowing application vs PE application (test method 6), crop, PE part; settings: Hordeum vulgare (summer barley), in vivo
Description: as §1, §2, §4

[10] = tested on: TRZAS (Triticum aestivum, summer wheat); test: Greenhouse trial: pre-sowing application vs PE application (test method 6), crop, pre-sowing part; settings: Triticum aestivum (summer wheat), in vivo
Description: as §1, §2, §4

[11] = tested on: AVEFA (Avena fatua); test: Greenhouse trial: different irrigation systems (test method 7); settings: g of AS/ha: (A) 120, (B) 1200, (C) 90
Description: as §1, §2, §3

[12] = tested on: LOLPE (Lolium perenne); test: as above; settings: g of AS/ha: (A) 120, (B) 1200, (C) 90
Description: as §1, §2, §3

[13] = tested on: MATCH (Matricaria chamomilla); test: as above; settings: g of AS/ha: (A) 120, (B) 1200, (C) 90
Description: as §1, §2, §3

[14] = tested on: LOLPE (Lolium perenne); test: Greenhouse trial: different soil types (test method 8); settings: g of AS/ha: (A) 120, (B) 1200, (C) 90
Description: as §1, §2, §3

[15] = tested on: MATCH (Matricaria chamomilla); test: as above; settings: g of AS/ha: (A) 120, (B) 1200, (C) 90; for Difference of the soil types, MATCH: IU/EC73 soil vs IU soil
Description: as §1, §2, §3

[16] = tested on: HORVS (Hordeum vulgare, summer barley); test: Greenhouse trial: different soil types (test method 8), crop; settings: Hordeum vulgare (summer barley), in vivo
Description: as §1, §2, §3

[17] = tested on: LOLSS (Lolium species), sensitive and resistant; test: Greenhouse trial: resistant biotypes, PE application (test method 9); settings: g of AS/ha: (A) 90, (B) 1200, (C) 90, iodosulfuron 10; for activity LOLSS resistant (visual scale 0-100%): resistant biotype; for activity LOLSS sensitive (visual scale 0-100%): sensitive biotype
Description: as §1, §2, §3

[18] = tested on: MATCH (Matricaria chamomilla), sensitive and resistant; test: as above; settings: g of AS/ha: (A) 90, (B) 1200, (C) 90, iodosulfuron 10; for activity MATCH resistant (visual scale 0-100%): resistant biotype; for activity MATCH sensitive (visual scale 0-100%): sensitive biotype
Description: as §1, §2, §3

[19] = tested on: STEME (Stellaria media), sensitive and resistant; test: as above; settings: g of AS/ha: (A) 90, (B) 1200, (C) 90, iodosulfuron 10; for activity STEME resistant (visual scale 0-100%): resistant biotype; for activity STEME sensitive (visual scale 0-100%): sensitive biotype
Description: as §1, §2, §3

[20] = tested on: APESV (Apera Spica-venti); test: Greenhouse trial: different sowing depths, PE application (test method 10); settings: g of AS/ha: (A) 90, (B) 1200, (C) 90; for activity APESV 5 mm (visual scale 0-100%): sowing depth 5 mm; for activity APESV 20 mm (visual scale 0-100%): sowing depth 20 mm
Description: as §1, §2, §3

[21] = tested on: MATCH (Matricaria chamomilla); test: as above; settings: g of AS/ha: (A) 90, (B) 1200, (C) 90; for activity MATCH 5 mm (visual scale 0-100%): sowing depth 5 mm; for activity MATCH 20 mm (visual scale 0-100%): sowing depth 20 mm
Description: as §1, §2, §3

[22] = PE application, g of AS/ha: (A) 90, (B) 1200, (C) 90
[23] = application 7 days prior to sowing, g AS/ha: (A) 90, (B) 1200, (C) 90

Row | Compound | activity POAAN (visual scale 0-100%) ([1]; PE application) [%] | activity STEME (visual scale 0-100%) ([2]; PE application) [%] | activity STEME (visual scale 0-100%) ([2]; incorporation into the soil) [%] | activity APESV (visual scale 0-100%) [3] [%] | activity POAAN (visual scale 0-100%) [4] [%] | activity STEME (visual scale 0-100%) [5] [%] | activity on crop HORVS (visual scale 0-100%) [6] [%] | activity AVEFA (visual scale 0-100%) [7, 22] [%] | activity AVEFA (visual scale 0-100%) [7, 23] [%] | activity LOLPE (visual scale 0-100%) [8, 22] [%] | activity LOLPE (visual scale 0-100%) [8, 23] [%] | activity on crop HORVS (visual scale 0-100%) [9] [%] | activity on crop TRZAS (visual scale 0-100%) [10] [%] | activity AVEFA (visual scale 0-100%) ([11]; irrigation from above) [%] | activity LOLSS resistant (visual scale 0-100%) [17] [%] | activity LOLSS sensitive (visual scale 0-100%) [17] [%] | activity MATCH resistant (visual scale 0-100%) [18] [%] | activity MATCH sensitive (visual scale 0-100%) [18] [%] | activity STEME resistant (visual scale 0-100%) [19] [%] | activity STEME sensitive (visual scale 0-100%) [19] [%] | further results
1 | CC(C)N(C(=O)COc1nnc(C(F)(F)F)s1)c1ccc(F)cc1 [(A) flufenacet, N-(4-fluorophenyl)-N-(1-methylethyl)-2-[[5-(trifluoromethyl)-1,3,4-thiadiazol-2-yl]oxy]acetamide] | 70 | 0 | 20 | 60 | 60 | 30 | 40 | 63 | 70 | 75 | 80 | 80 | 40 | 85 | 10 | 85 | 30 | 30 | 0 | 0 | activity POAAN (visual scale 0-100%) ([1]; incorporation into the soil): 100%; activity AVEFA (visual scale 0-100%) ([11]; irrigation from below): 50%; activity LOLPE (visual scale 0-100%) ([12]; irrigation from above): 80%; activity LOLPE (visual scale 0-100%) ([12]; irrigation from below): 78%; activity MATCH (visual scale 0-100%) ([13]; irrigation from above): 49%; activity MATCH (visual scale 0-100%) ([13]; irrigation from below): 35%; activity LOLPE IU soil (visual scale 0-100%) [14]: 97%; activity LOLPE IU/EC73 soil (visual scale 0-100%) [14]: 75%; activity MATCH IU soil (visual scale 0-100%) [15]: 80%; Difference of the soil types, MATCH [15]: −75%; activity MATCH IU/EC73 soil (visual scale 0-100%) [15]: 5%; Difference Δ^D of the soil types, HORVS [16]: Δ^D − 10%; activity on crop HORVS IU soil (visual scale 0-100%) [16]: 10%; activity on crop HORVS IU/EC73 soil (visual scale 0-100%) [16]: 0%; activity APESV 5 mm (visual scale 0-100%) [20]: 65%; activity APESV 20 mm (visual scale 0-100%) [20]: 70%; activity MATCH 5 mm (visual scale 0-100%) [21]: 30%; activity MATCH 20 mm (visual scale 0-100%) [21]: 30%
2 | CCCN(CCC)C(=O)SCc1ccccc1 [(B) prosulfocarb, S-(phenylmethyl) dipropylcarbamothioate] | 35 | 30 | 65 | 20 | 30 | 30 | 30 | 10 | 10 | 5 | 0 | 15 | 20 | 5 | 65 | 85 | 25 | 0 | 40 | 70 | activity AVEFA (visual scale 0-100%) ([11]; irrigation from below): 10%; activity LOLPE (visual scale 0-100%) ([12]; irrigation from above): 10%; activity LOLPE (visual scale 0-100%) ([12]; irrigation from below): 5%; activity MATCH (visual scale 0-100%) ([13]; irrigation from above): 0%; activity MATCH (visual scale 0-100%) ([13]; irrigation from below): 0%; activity LOLPE IU soil (visual scale 0-100%) [14]: 33%; activity LOLPE IU/EC73 soil (visual scale 0-100%) [14]: 0%; activity MATCH IU soil (visual scale 0-100%) [15]: 10%; Difference of the soil types, MATCH [15]: −10%; activity MATCH IU/EC73 soil (visual scale 0-100%) [15]: 0%; Difference Δ^D of the soil types, HORVS [16]: Δ^D + 3%; activity on crop HORVS IU soil (visual scale 0-100%) [16]: 0%; activity on crop HORVS IU/EC73 soil (visual scale 0-100%) [16]: 3%; activity APESV 5 mm (visual scale 0-100%) [20]: 50%; activity APESV 20 mm (visual scale 0-100%) [20]: 20%; activity MATCH 5 mm (visual scale 0-100%) [21]: 0%; activity MATCH 20 mm (visual scale 0-100%) [21]: 0%
3 | COc1nc(C)nc(NC(=O)NS(=O)(=O)c2cc(I)ccc2C(=O)O)n1 [iodosulfuron] |  |  |  |  |  |  |  |  |  |  |  |  |  |  | 50 | 98 | 60 | 100 | 40 | 90 | 
